The subject of assay [1] is PC-12. The assay is described as follows: Neuroprotective activity against H2O2-induced cytotoxicity in rat PC12 cells assessed as cell viability at 10 uM after 24 hrs by MTT assay relative to control. In kind it is functional. As to conditions: for viability at 10 µM: PC-12, 24 h, read-out: Activity.
For assay [2], the system named is PC-12. The assay is described as follows: Neuroprotective activity against H2O2-induced cytotoxicity in rat PC12 cells assessed as cell viability at 1 mM after 24 hrs by MTT assay relative to control. The assay is classed as functional. To be noted: PC-12, 24 h, read-out: Activity. On the technique in general: Tetrazolium assays rely on reduction of a dye to a coloured formazan, in cell work by metabolically active cells.

Assay [3] relates to RAW264.7. The assay can be described thus: Antiinflammatory activity in mouse RAW264.7 cells assessed as inhibition of LPS-induced nitric oxide production at 10 uM preincubated for 30 mins followed by LPS addition measured after 20 hrs by Griess assay relative to control. The assay is classed as functional. (In general: Griess reagent forms a coloured azo dye with nitrite.)
The test system of assay [4] is PC-12. The assay can be described thus: Neuroprotective activity against amyloid beta (1 to 42)-induced cytotoxicity in rat PC12 cells assessed as cell viability at 10 uM after 48 hrs by MTT assay (reference value: 55.3 to 64.4%). The assay is classed as functional. As to conditions: PC-12, 48 h, read-out: Activity.
The test system of assay [5] is PC-12. The assay can be described thus: Neuroprotective activity against amyloid beta (1 to 42)-induced cytotoxicity in rat PC12 cells assessed as cell viability at 30 uM after 48 hrs by MTT assay (reference value: 55.3 to 64.4%). The assay is classed as functional. To be noted: PC-12, 48 h, read-out: Activity.
Assay [6] relates to PC-12. The assay can be described thus: Neuroprotective activity against amyloid beta (1 to 42)-induced cytotoxicity in rat PC12 cells assessed as cell viability at 1 uM after 48 hrs by MTT assay (reference value: 55.3 to 64.4%). The assay is classed as functional. As to conditions: PC-12, 48 h, read-out: Activity.
Assay [7] relates to Mus musculus. The assay is described as follows: Antialzheimer activity in cognitive deficit ICR mouse model assessed as reduction in amyloid beta (1 to 42)-induced spatial memory impairment at 6 mg/kg, ig qd administered for 7 consecutive days by Morris water maze test. In kind it is functional, organism-based.

Molecules are shown by their SMILES. Calls of active or inactive are those of the source. No cut-off for these calls is given here.

Take `C[C@H]1CC[C@@]2(OC1)O[C@H]1C[C@H]3[C@@H]4CC[C@@H]5C[C@@H](OC(=O)N6CCN(Cc7ccccc7)CC6)CC[C@]5(C)[C@H]4CC[C@]3(C)[C@H]1[C@@H]2C`: the viability at 10 µM in assay [1] amounted to 18.7%.

As for `CC(=O)N[C@@H](CS)C(=O)O` [ACETYLCYSTEINE], in assay [2], the viability at 1000 µM amounted to 35.3%.

As for `COc1ccc(C(=O)N2CCN(C(=O)O[C@H]3CC[C@@]4(C)[C@H](CC[C@@H]5[C@@H]4CC[C@]4(C)[C@@H]6[C@H](C[C@@H]54)O[C@]4(CC[C@H](C)CO4)[C@H]6C)C3)CC2)cc1`, the viability at 10 µM in assay [1] amounted to 17.7%.

For `CCCN1CCN(C(=O)O[C@H]2CC[C@@]3(C)[C@H](CC[C@@H]4[C@@H]3CC[C@]3(C)[C@@H]5[C@H](C[C@@H]43)O[C@]3(CC[C@H](C)CO3)[C@H]5C)C2)CC1`, in assay [1], the viability at 10 µM was found to be 18.9%.

What is called inhibition is the percentage by which the read-out fell short of the control. On to `COc1ccc(CN2CCN(C(=O)O[C@H]3CC[C@@]4(C)[C@H](CC[C@@H]5[C@@H]4CC[C@]4(C)[C@@H]6[C@H](C[C@@H]54)O[C@]4(CC[C@H](C)CO4)[C@H]6C)C3)CC2)cc1`, for which the viability at 10 µM in assay [1] amounted to 33.1%. Further, the inhibition at 10 µM in assay [3] was 1.3%.

Regarding `C[C@H]1CC[C@@]2(OC1)O[C@H]1C[C@H]3[C@@H]4CC[C@@H]5C[C@@H](OC(=O)N6CCNCC6)CC[C@]5(C)[C@H]4CC[C@]3(C)[C@H]1[C@@H]2C`, in assay [1], the viability at 10 µM is 3.4%.

Consider `C[C@H]1CC[C@@]2(OC1)O[C@H]1C[C@H]3[C@@H]4CC[C@@H]5C[C@@H](O)CC[C@]5(C)[C@H]4CC[C@]3(C)[C@H]1[C@@H]2C` [SARSASAPOGENIN], for which the viability at 10 µM in assay [4] is 79.2%; in assay [1], 3.3%. For the same molecule, the viability at 30 µM in assay [5] came out at 58.9%.

As for `C[C@H]1CC[C@@]2(OC1)O[C@H]1C[C@H]3[C@@H]4CC[C@@H]5C[C@@H](OC(=O)N6CCN(S(=O)(=O)c7ccccc7)CC6)CC[C@]5(C)[C@H]4CC[C@]3(C)[C@H]1[C@@H]2C`, the viability at 10 µM in assay [1] worked out at 20.8%. For the same molecule, the inhibition result in assay [3] is “inactive”.

As to `CCS(=O)(=O)N1CCN(C(=O)O[C@H]2CC[C@@]3(C)[C@H](CC[C@@H]4[C@@H]3CC[C@]3(C)[C@@H]5[C@H](C[C@@H]43)O[C@]3(CC[C@H](C)CO3)[C@H]5C)C2)CC1`, the viability at 10 µM in assay [1] was 6.8%.

`Cc1ccc(CN2CCN(C(=O)O[C@H]3CC[C@@]4(C)[C@H](CC[C@@H]5[C@@H]4CC[C@]4(C)[C@@H]6[C@H](C[C@@H]54)O[C@]4(CC[C@H](C)CO4)[C@H]6C)C3)CC2)cc1`: in assay [1], the viability at 10 µM stood at 19.2%.

For the molecule `C[C@H]1CC[C@@]2(OC1)O[C@H]1C[C@H]3[C@@H]4CC[C@@H]5C[C@@H](OC(=O)N6CCN(Cc7ccccc7O)CC6)CC[C@]5(C)[C@H]4CC[C@]3(C)[C@H]1[C@@H]2C`, the viability at 10 µM in assay [4] is 95.3%; in assay [1] it was 36.6%. Further, the viability at 1 µM in assay [6] was found to be 59.3%. The inhibition at 10 µM in assay [3] was 15.2%.

In the case of `C[C@H]1CC[C@@]2(OC1)O[C@H]1C[C@H]3[C@@H]4CC[C@@H]5C[C@@H](OC(=O)N6CCN(Cc7ccc(C#N)cc7)CC6)CC[C@]5(C)[C@H]4CC[C@]3(C)[C@H]1[C@@H]2C`, the viability at 10 µM in assay [1] was found to be 26.4%. Moreover, the inhibition at 10 µM in assay [3] was 21.6%.

In the case of `C[C@H]1CC[C@@]2(OC1)O[C@H]1C[C@H]3[C@@H]4CC[C@@H]5C[C@@H](OC(=O)N6CCN(Cc7ccc(F)cc7)CC6)CC[C@]5(C)[C@H]4CC[C@]3(C)[C@H]1[C@@H]2C`, the viability at 10 µM in assay [1] was found to be 7.2%.

`Cc1ccc(S(=O)(=O)N2CCN(C(=O)O[C@H]3CC[C@@]4(C)[C@H](CC[C@@H]5[C@@H]4CC[C@]4(C)[C@@H]6[C@H](C[C@@H]54)O[C@]4(CC[C@H](C)CO4)[C@H]6C)C3)CC2)cc1`: the viability at 10 µM in assay [1] came out at 29.5%. The inhibition at 10 µM in assay [3] stood at 4.8%.

With `C[C@H]1CC[C@@]2(OC1)O[C@H]1C[C@H]3[C@@H]4CC[C@@H]5C[C@@H](OC(=O)N6CCN(Cc7ccc(N(C)C)cc7)CC6)CC[C@]5(C)[C@H]4CC[C@]3(C)[C@H]1[C@@H]2C`, the viability at 10 µM in assay [1] was 22%. In assay [3], the inhibition at 10 µM was determined as 5.6%.

Turning to `C[C@H]1CC[C@@]2(OC1)O[C@H]1C[C@H]3[C@@H]4CC[C@@H]5C[C@@H](OC(=O)N6CCN(Cc7ccc(O)cc7)CC6)CC[C@]5(C)[C@H]4CC[C@]3(C)[C@H]1[C@@H]2C`, in assay [1], the viability at 10 µM is 5.8%.

Turning to `C[C@H]1CC[C@@]2(OC1)O[C@H]1C[C@H]3[C@@H]4CC[C@@H]5C[C@@H](OC(=O)N6CCN(S(=O)(=O)c7ccc(F)cc7)CC6)CC[C@]5(C)[C@H]4CC[C@]3(C)[C@H]1[C@@H]2C`, the viability at 10 µM in assay [1] was 8.5%.

As to `C[C@H]1CC[C@@]2(OC1)O[C@H]1C[C@H]3[C@@H]4CC[C@@H]5C[C@@H](OC(=O)N6CCN(C(=O)c7ccc(Cl)cc7)CC6)CC[C@]5(C)[C@H]4CC[C@]3(C)[C@H]1[C@@H]2C`, in assay [1], the viability at 10 µM turned out to be 20.2%. Moreover, in assay [3], the inhibition result is “inactive”.

As for `C[C@H]1CC[C@@]2(OC1)O[C@H]1C[C@H]3[C@@H]4CC[C@@H]5C[C@@H](OC(=O)N6CCN(C(=O)c7ccccc7)CC6)CC[C@]5(C)[C@H]4CC[C@]3(C)[C@H]1[C@@H]2C`, the viability at 10 µM in assay [1] amounted to 17.6%.

For the molecule `C[C@H]1CC[C@@]2(OC1)O[C@H]1C[C@H]3[C@@H]4CC[C@@H]5C[C@@H](OC(=O)N6CCN(C(=O)c7ccc(N)cc7)CC6)CC[C@]5(C)[C@H]4CC[C@]3(C)[C@H]1[C@@H]2C`, the result in assay [1] was inactive.

In the case of `COc1cc(CN2CCN(C(=O)O[C@H]3CC[C@@]4(C)[C@H](CC[C@@H]5[C@@H]4CC[C@]4(C)[C@@H]6[C@H](C[C@@H]54)O[C@]4(CC[C@H](C)CO4)[C@H]6C)C3)CC2)ccc1O`, the viability at 10 µM came to 91.3% in assay [4] and 43.9% in assay [1]. Further, the outcome in assay [7] was Active. The viability at 1 µM in assay [6] turned out to be 55.8%. In addition, the inhibition at 10 µM in assay [3] stood at 24.4%.

The record behind these values is ChEMBL document CHEMBL4270545, “Design, synthesis and biological evaluation of 3-piperazinecarboxylate sarsasapogenin derivatives as potential multifunctional anti-Alzheimer agents” (2018).
